The values that follow come from US20040072903A1, “Carboxyalkylether-acat inhibitors combinations” (priority 2002, published 2004).

In one assay the test system is Chow-Fed Rat. Briefly: Effects of Treatment on Lipid and Lipoprotein Parameters in the Chow-Fed Rat. The format is in vivo. Set-up: TG (Triglyceride) / Cholesterol (Total cholesterol) / VLDL (Very low-density cholesterol) / LDL (Low-density cholesterol) / HDL (High-density cholesterol): unit not given here.
Another assay has as its system man. As to conditions: in man, Helsinki Heart Study; cited from earlier work.

Take `CC(C)c1cc(C(C)C)c(CC(=O)NS(=O)(=O)Oc2c(C(C)C)cccc2C(C)C)c(C(C)C)c1` [Avisimbe]: in the assay with Chow-Fed Rat (10 mg/kg), the “Cholesterol (Total cholesterol)” value turned out to be 36 ± 2.3; the “HDL (High-density cholesterol)” value came out at 19.5 ± 1.7; the “HDL/VLDL + LDL (HDL divided by the sum of VLDL and LDL)” value came to 1.2 ± 0.1; the “LDL (Low-density cholesterol)” value amounted to 12.0 ± 1.1. Also, in the assay with Chow-Fed Rat (10 mg/kg), the “TG (Triglyceride)” value was determined as 85 ± 16.8 and the “VLDL (Very low-density cholesterol)” value worked out at 3.9 ± 0.7. In the assay on Chow-Fed Rat (30 mg/kg), the “Cholesterol (Total cholesterol)” value is 37 ± 2.9; the “HDL (High-density cholesterol)” value was 22.2 ± 1.8; the “HDL/VLDL + LDL (HDL divided by the sum of VLDL and LDL)” value stood at 1.6 ± 0.1; the “LDL (Low-density cholesterol)” value worked out at 12.0 ± 0.8. Also, in the assay on Chow-Fed Rat (30 mg/kg), the “TG (Triglyceride)” value is 65 ± 12.9 and the “VLDL (Very low-density cholesterol)” value amounted to 2.1 ± 0.6.

For the molecule `CC(C)(CCCCOCCCCC(C)(C)C(=O)O)C(=O)O` [CI-1027], in the assay on Chow-Fed Rat (3 mg/kg), the “Cholesterol (Total cholesterol)” value is 40 ± 1.4; the “HDL (High-density cholesterol)” value is 28 ± 1.0; the “HDL/VLDL + LDL (HDL divided by the sum of VLDL and LDL)” value is recorded as 2.4 ± 0.1; the “LDL (Low-density cholesterol)” value is recorded as 9.0 ± 0.5. Further, in the assay on Chow-Fed Rat (3 mg/kg), the “TG (Triglyceride)” value is on record as 70 ± 2.8 and the “VLDL (Very low-density cholesterol)” value is reported as 2.7 ± 0.3. Besides, in the assay on Chow-Fed Rat (10 mg/kg), the “Cholesterol (Total cholesterol)” value was determined as 89 ± 8.5; the “HDL (High-density cholesterol)” value is given as 76 ± 7.1; the “HDL/VLDL + LDL (HDL divided by the sum of VLDL and LDL)” value turned out to be 6.8 ± 0.7; the “LDL (Low-density cholesterol)” value worked out at 9.1 ± 1.1. In the assay with Chow-Fed Rat (10 mg/kg), the “TG (Triglyceride)” value is listed as 60 ± 8.8 and the “VLDL (Very low-density cholesterol)” value stood at 2.8 ± 0.8. Moreover, in the assay with Chow-Fed Rat (30 mg/kg), the “Cholesterol (Total cholesterol)” value came to 119 ± 21; the “HDL (High-density cholesterol)” value was 100 ± 14.8; the “HDL/VLDL + LDL (HDL divided by the sum of VLDL and LDL)” value turned out to be 9.4 ± 2.7; the “LDL (Low-density cholesterol)” value was found to be 17.6 ± 6.1. Besides, in the assay on Chow-Fed Rat (30 mg/kg), the “TG (Triglyceride)” value was found to be 27 ± 2.0 and the “VLDL (Very low-density cholesterol)” value is recorded as 0.7 ± 0.2.

With `Cc1ccc(C)c(OCCCC(C)(C)C(=O)O)c1` [gemfibrozil], in the assay on man, the HDL-C entry is on record as “increased”, the LDL-C result is “decreased” and the “incidence of coronary artery disease” value is “reduced”.
